The source of these data is ChEMBL document CHEMBL1201862, “PubChem BioAssay data set” (2004).

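Assay format: 96-well plates, 48-hour exposure. The concentration for 50% growth inhibition is given as GI50.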 Calls of active or inactive are those of the source. Cut-off read from the data, not from the text of the source: active = GI50 up to about 1.1 µM and inactive = higher.

Assay in all cases: NCI tumour cell line growth inhibition, 48 h
The test system of assay [1] is 786-0.
Assay [2] deals with A498.
For assay [3], the system named is COLO 205.
The subject of assay [4] is DU-145.
For assay [5], the system named is HL-60.
In assay [6] the test system is Hs-578T.
Assay [7] relates to LOX IMVI.
Assay [8] has as its system M14.
In assay [9] the test system is OVCAR-3.
Assay [10] relates to OVCAR-8.
The subject of assay [11] is PC-3.
Assay [12] has as its system RPMI-8226.
The subject of assay [13] is SK-MEL-5.
In assay [14] the test system is SR.
Assay [15] relates to TK-10.
The test system of assay [16] is U-251.
Assay [17] deals with UACC-257.
The test system of assay [18] is UO-31.
The subject of assay [19] is T47D.
Assay [20] relates to SNB-75.

On to `N#Cc1ccc(C2NN=CC23C(=O)c2ccccc2OC3c2ccccc2)cc1` (centres undefined), for which the GI50 was 32.1 µM (inactive) in assay [1]; 26.9 µM (inactive) in [2]; 18.8 µM (inactive) in assay [3]; 47.1 µM (inactive) in assay [4]; 59.7 µM (inactive) in assay [5]; 30.5 µM (inactive) in [6]. Moreover, the GI50 in assay [7] was 30.9 µM (inactive); in [8] it was 97.1 µM (inactive); in [9] it was 30.4 µM (inactive); in assay [10], 42.4 µM (inactive); in [11], 29.7 µM (inactive); in assay [12] it was 20.8 µM (inactive). Also, the GI50 is 23.7 µM (inactive) in assay [13]; 24 µM (inactive) in [14]; 25.4 µM (inactive) in assay [15]; 23.8 µM (inactive) in [16]; 28 µM (inactive) in assay [17]; 19.2 µM (inactive) in [18].

In the case of `NC(Cc1ccccc1)C(=O)N[C@H]1c2ccsc2/C(=N/O)[C@H]1O` (some centres undefined), the GI50 in [2], in [3], in assay [4], in assay [5], in assay [7] and in assay [8] was > 100 µM (inactive) in each case. In addition, the GI50 in [9], in [10], in assay [11], in assay [13], in [14] and in assay [19] was > 100 µM (inactive) each time. Moreover, the GI50 in assay [15] was > 100 µM (inactive); in assay [16] it was > 100 µM (inactive); in assay [17], > 100 µM (inactive); in [18], 25.6 µM (inactive).

Turning to `O=C1CCCCCCCCCCC1CN1CCCCC1` (centres undefined), the GI50 in [1] was > 100 µM (inactive); in [2] it was > 100 µM (inactive); in [3], 41.4 µM (inactive); in assay [5], 87.1 µM (inactive); in assay [7] it was 70.6 µM (inactive); in [8], > 10 µM (inactive). In addition, the GI50 in [9] is > 100 µM (inactive); in [10], > 100 µM (inactive); in assay [12], > 100 µM (inactive); in assay [13], 15 µM (inactive); in assay [20], 39.1 µM (inactive); in assay [14], > 100 µM (inactive). Also, the GI50 in [15] was 38.4 µM (inactive); in [16] it was 75.3 µM (inactive); in assay [17], 70.6 µM (inactive); in assay [18] it was 39 µM (inactive).

As to `Cc1cc(C)nc(NS(=O)(=O)c2ccc(NC(=O)COC(=O)c3cccc4c(=O)c5ccccc5[nH]c34)cc2)n1`, the GI50 is 19.1 µM (inactive) in assay [1]; 30.3 µM (inactive) in assay [2]; 48.8 µM (inactive) in assay [3]; 26.9 µM (inactive) in [5]; 20.5 µM (inactive) in assay [7]; 56 µM (inactive) in [8]. The GI50 in [9] is 23.6 µM (inactive); in assay [10] it was 32.1 µM (inactive); in assay [12], 35.7 µM (inactive); in assay [13], 40.6 µM (inactive); in [20], 31 µM (inactive); in assay [14], 28.6 µM (inactive). In addition, the GI50 in assay [15] was 76.4 µM (inactive); in assay [16] it was 20 µM (inactive); in [17], 27.1 µM (inactive); in [18], 61.9 µM (inactive).

As to `COc1ccc(C(=O)NCCC2CN(S(=O)(=O)C(F)(F)F)c3ccccc32)c(OC)c1` (centres undefined), the GI50 in [1] was 53 µM (inactive); in [2], > 100 µM (inactive); in assay [3] it was 34.5 µM (inactive); in assay [4] it was > 100 µM (inactive); in [6], 33.1 µM (inactive); in assay [8], 35.1 µM (inactive). Moreover, the GI50 in assay [9] was 51.4 µM (inactive); in [11] it was 36 µM (inactive); in assay [12], 26.8 µM (inactive); in assay [13], 15.2 µM (inactive); in [14], > 100 µM (inactive); in assay [16] it was 30.3 µM (inactive). Besides, the GI50 is 40.8 µM (inactive) in assay [17] and 43 µM (inactive) in assay [18].

On to `N#CC1=C2SCCN2C(=O)C(C#N)C12CCCCC2` (centres undefined), for which the GI50 in assay [1], in assay [2], in [3], in [4], in [7] and in assay [8] was > 100 µM (inactive) in each case. In addition, the GI50 in assay [9], in assay [10], in assay [11], in [12], in [13] and in assay [20] was > 100 µM (inactive) throughout. The GI50 in [14], in assay [19], in [15], in assay [16], in assay [17] and in assay [18] was > 100 µM (inactive) throughout.

As to `C=C(C)[C@@H]1CC[C@@H](C)[C@](O)([C@@H]2C[C@@H]([C@H](COC(=O)c3ccccc3)OC(=O)c3ccccc3)OC2=O)C1`, the GI50 in assay [1], in [2], in [3], in assay [4], in assay [7] and in assay [8] was > 100 µM (inactive) each time. For the same compound, the GI50 in assay [9] was > 100 µM (inactive); in assay [10], > 100 µM (inactive); in [11], 46.1 µM (inactive); in assay [12], 54 µM (inactive); in assay [13], > 100 µM (inactive); in assay [20], > 100 µM (inactive). Besides, the GI50 is 24.9 µM (inactive) in [14]; > 100 µM (inactive) in [15]; > 100 µM (inactive) in assay [16]; > 100 µM (inactive) in [17]; 29 µM (inactive) in assay [18].

For the compound `CCOC(=O)Cc1nc2cc(F)c(F)cc2[nH]c1=O`, the GI50 in assay [1], in [3], in assay [4], in [5], in [6] and in assay [7] was > 100 µM (inactive) each time. Also, the GI50 in assay [8], in assay [9], in [10], in assay [11], in assay [12] and in assay [13] was > 100 µM (inactive) each time. Moreover, the GI50 in assay [20], in [15], in assay [16], in assay [17] and in [18] was > 100 µM (inactive) throughout.

Consider `N#COc1ccc(Oc2ccc(OC#N)cc2)cc1`, for which the GI50 in assay [1] was 39.1 µM (inactive); in [2] it was > 100 µM (inactive); in assay [3], 22.4 µM (inactive); in assay [5], 46.3 µM (inactive); in assay [7], 19.3 µM (inactive); in assay [8] it was > 100 µM (inactive). The GI50 was > 100 µM (inactive) in [9]; > 100 µM (inactive) in assay [10]; 32 µM (inactive) in assay [12]; > 100 µM (inactive) in assay [13]; 93.5 µM (inactive) in assay [20]; 24.1 µM (inactive) in assay [14]. The GI50 in assay [15] is > 100 µM (inactive); in assay [16], 85.7 µM (inactive); in assay [17], > 100 µM (inactive); in assay [18], 89.7 µM (inactive).

For the compound `O=C(Cc1nc2ccc(C(=O)c3ccccc3)cc2nc1O)C(=O)Nc1ccc(C(F)(F)F)cc1[N+](=O)[O-]`, the GI50 in assay [1] was > 100 µM (inactive); in [2], 90.4 µM (inactive); in assay [3], 45 µM (inactive); in assay [5], 31.6 µM (inactive); in assay [7], 39.4 µM (inactive); in [8], > 100 µM (inactive). Moreover, the GI50 in assay [9] is 38.7 µM (inactive); in [10] it was 69 µM (inactive); in assay [12], 42.5 µM (inactive); in assay [13], 39.7 µM (inactive); in [20] it was 45.9 µM (inactive); in assay [14], 26.9 µM (inactive). The GI50 in assay [15] is > 100 µM (inactive); in assay [16], > 100 µM (inactive); in assay [17], > 100 µM (inactive); in assay [18] it was 61.2 µM (inactive).

With `COC(=O)C(=O)C(C(=O)C=C(C)C)C(=O)C(=O)Nc1cccc(C(C)=O)c1` (centres undefined), the GI50 in assay [1], in assay [2], in assay [3], in [5], in assay [7] and in assay [8] was > 100 µM (inactive) in each case. For the same compound, the GI50 in assay [9], in assay [10], in assay [12], in assay [13], in [20] and in [14] was > 100 µM (inactive) each time. Also, the GI50 in assay [15], in assay [16], in assay [17] and in assay [18] was > 100 µM (inactive) throughout.

`CN(C)c1ccc(/N=C2/C=CC(=C(C#N)C#N)c3ccccc32)cc1`: the GI50 in assay [1] was 0.385 µM (active); in [2] it was 0.392 µM (active); in [3] it was 0.0957 µM (active); in assay [4], 0.259 µM (active); in assay [5] it was 0.0541 µM (active); in assay [6], 0.361 µM (active). Besides, the GI50 was 0.282 µM (active) in assay [7]; 0.145 µM (active) in [8]; 0.118 µM (active) in assay [9]; 0.213 µM (active) in [10]; 0.183 µM (active) in assay [11]; 0.122 µM (active) in assay [12]. Further, the GI50 in assay [13] is 0.133 µM (active); in [20] it was 0.363 µM (active); in [14], 0.0345 µM (active); in assay [15] it was 1.82 µM (inactive); in [16], 0.333 µM (active); in assay [17] it was 1.49 µM (inactive). In addition, the GI50 in assay [18] was 0.893 µM (active).
